Data reported in patent publication US11013724B2, “Glutaminase inhibitors” (University of Pittsburgh—Of the Commonwealth System of …, priority 2014, dated 2021).

How the values were obtained:
[1] = molecular target: recombinant GAC (human GAC, residues 72-603); test: GAC enzyme assay (biochemical assay, glutamate dehydrogenase-coupled, absorbance at 340 nm); settings: relative to prior art compound BPTES
Method: (§1) Cell culture media and serum were obtained from Invitrogen (Carlsbad, Calif.). All other reagents were obtained from Fisher Scientific (Pittsburgh, Pa.) or Sigma Aldrich (St. Louis, Mo.). MDA-MB-231 cells were purchased from ATCC (Manassas, Va.), and were cultured at 35° C., in 5% CO2, using RPMI-1640 media supplemented with 10% FBS, unless otherwise specified. Recombinant GAC was expressed in E. coli and purified. Briefly, human GAC (residues 72-603) was cloned into the pET28a vector from Novagen, and was expressed as a His6-tagged fusion protein in E. coli. It was then purified by ion exchange and size exclusion chromatography.
Biochemical assays: The GAC inhibitors were solvated in DMSO. Assay vessels were charged with 1 μL of inhibitor in order to effect the reported final concentration. To each vessel was added 95 μL of an aqueous solution containing 48 mM Tris-acetate (pH 8.6), 21 mM glutamine, and 50 nM recombinant GAC. Fifteen μL of either water or 1 M potassium phosphate, pH 8.2, were added to the mixture to begin the reaction. […] The absorbance of both the second and third reactions was recorded at […]. The third reaction was treated as a baseline, and its absorbance was subtracted from that of the second reaction prior to further data analysis. […] Dose curves and IC50 values were determined in Sigmaplot, using the built-in four parameter logistic function.

MDA-MB 231 cancer cells = test: MDA-MB-231 cell proliferation assay (cell counting on 6th day); assay type: cell-based; settings: relative to prior art compound BPTES
Method: as §1
Cell assays: MDA-MB-231 cells were cultured in RPMI-1640 media supplemented with 10% FBS. Prior to initiating the assay, cells that were 70-80% confluent were trypsinized. These cells were diluted, counted, and dispensed into 12-well culture plates at a density of 2×10^4 cells per well. Each well was then brought to 1 mL of media, total. The cells were allowed to adhere to the wells overnight, at which point they were recounted (day 0 of the assay). […] Cells were counted on the 6th day of culture. […] Cells were then counted on a hemocytometer, with 3 readings taken and averaged per sample. […] Dose curves and IC50 values were determined in Sigmaplot, using the built-in four parameter logistic function.

IC50 in the GAC enzyme assay compared directly to BPTES [1]: one order of magnitude better
Compound: O=C(Cc1ccccc1)Nc1nnc(OC2CCN(c3nnc(NC(=O)Cc4ccccc4)s3)CC2)s1 [UPGL00019, 2-Phenyl-N-{5-[1-(5-phenylacetylamino-[1,3,4]thiadiazol-2-yl)-piperidin-4-yloxy]-[1,3,4]thiadiazol-2-yl}-acetamide]
IC50 in inhibiting the proliferation of MDA-MB 231 cancer cells in vitro compared to BPTES (MDA-MB 231 cancer cells): better than BPTES by 2 orders of magnitude
